# Columns and labels:
# [1] = tested on: NOS; experiment: Functional detection of NOS transfection in mouse mesenteric arteries by absorption spectroscopy
# Excerpt: Mouse 1st order mesenteric arteries are dissected out and maintained in Optimem I supplemented with 10% foetal bovine serum. cDNAs (for NOS) inserted into appropriate plasmids are mixed with LipofectAMINE according to the manufacturers instructions. Two arteries are set up in separate perfusion chambers; the first tissue (A) acts as a control (receives LipofectAMINE and plasmids without the cDNA insert), the second tissue (B) receives LipofectAMINE with plasmids containing the NOS cDNA insert. The arteries are exposed to the appropriate transfection solutions for 8 hours.
# After 8 hours, the unit switches automatically and perfuses the vessels with normal PSS. Analysis of the lumen diameter via absorption spectroscopy begins, providing continual information on the contractile state of the artery.
# Functional detection of NOS activity is achieved by way of a two-stage protocol. Firstly, concentration-response curves to ACh are conducted in both vessels. During the concentration-response curve, changes in the state of the blood vessels are continuously monitored by absorption spectroscopy. ACh selectively activates expressed NOS synthase and causes release of the vasodilator nitric oxide (NO). […] The control vessel should display little vasodilation to ACh, as NOS cDNA was not transfected in this tissue.
# Both vessels are then perfused with normal PSS for thirty minutes. […]
# [2] = tested on: 3rd order mesenteric arteries; experiment: Absorption spectroscopy of agonist-induced vasoconstriction in pressurised rat mesenteric arteries; conditions: increasing concentrations; normotensive male Wistar rat arteries, 60 mmHg, 37° C., PSS
# Description: 3rd order mesenteric arteries from normotensive male Wistar rats were set up in two perfusion chambers in normal physiological salt solution (PSS), at 37° C. and gassed with 95% O2/5% CO2. The vessels were pressurised to 60 mmHg and allowed to equilibrate for 30 minutes. Thereafter, one vessel acted as a control and the other vessel received increasing concentrations of the thromboxane A2 mimetic, U46619. Transmission spectra were recorded at one second intervals and analysed according to the methods described above.
# The optical extinction model described above was used to accurately and continuously measure lumen diameter.
compound,measurement,setting,value
COC(=O)[C@@H](N)CCCNC(=N)N[N+](=O)[O-] [L-NAME],effect on ACh responses (concentration response curve repeated in presence of inhibitor),[1]; NOS cDNA-transfected mouse mesenteric artery,abolish further responses to ACh
CCCCC[C@H](O)/C=C/[C@@H]1[C@@H](C/C=C\CCCC(=O)O)[C@H]2CO[C@@H]1C2 [U46619],vasoconstriction (change in lumen diameter) detected via shifts in transmission spectra,[2],vasoconstriction was detected
CC(=O)OCC[N+](C)(C)C [ACh],response of NOS cDNA-transfected blood vessel to ACh,"[1]; concentration-response curve, NOS-knockout mouse 1st order mesenteric artery after 8 hours transfection",vasodilation
